Where a SMILES comes first, the peptide text is derived from it.
What was measured:
[1] = molecular target: passive nuclear influx of 40 kD dextran; test: Passive import assay, 40 kD dextran, permeabilized HeLa; format: cell-based, human; details: preincubation 30–60 min, with energy and lysate; imaged 5 min
importin β = test: Biochemical pulldown (GFP-Trap) for DPR-induced Rango-importin β dissociation; format: binding, human; details: increasing concentrations of DPRs
Protocol: GFP-Trap magnetic beads (Chromotek, Planegg-Martinsried, Germany) were washed and resuspended in TTBS. At the end of incubation, 8 µl bead suspension was added to each sample and mixed by rotation for 15 min. The supernatant was removed and beads washed 3 times with TTBS before boiling in 20 µl SDS-PAGE sample buffer with 2% β-mercaptoethanol. Samples were separated by SDS-PAGE and anti-GFP western blot performed as detailed below to detect Rango. After detecting the ECL signal, membranes were stained with Coomassie Brilliant R250 to detect importin β. Background-subtracted signals were determined by Image Lab 6.01 (BioRad) and the Rango ECL signal normalized to the importin β signal within each lane.
Supernatant and pellet fractions (for all 5 DPRs, and control/buffer only) were prepared as in the nuclear transport assays, by adding 100 µM 10mers to 2.5 mg/ml HEK lysate in 100 µL TRB. Supernatants were boiled in Laemmli (BioRad) for 5 min. Pellets were boiled for 15 min followed by sonication in order to fully disperse aggregates for SDS-PAGE. Equal volumes of supernatant and pellet fractions were run on 4–12% Bolt Bis-Tris Plus gels (ThermoFisher), transferred to nitrocellulose membrane using an iBlot2 dry blotting system (ThermoFisher). Protein loading was analyzed by BLOT-Faststain (G-biosciences, St. Louis, MO), according to the manufacterers’ instructions. For immunodetection, membranes were blocked with 5% non-fat milk in TBST and probed by sequential incubation with the primary antibodies as detailed in the table below. Detection was by HRP-conjugated secondary antibodies/chemiluminescence using an ImageQuant LAS 4000 system (GE, Chicago, IL). To permit sequential probing of membranes without stripping, signals were quenched by incubation with prewarmed 30% H20_2 for 20 min ([Sennepin et al., 2009]). Band intensities were measured by ImageQuant software. For pellet vs. supernatant fractions, all were expressed as percent untreated control. For blots in Figure 1E, samples were run on 4–20% SDS PAGE minigels (ThermoFisher) and blotted to PVDF membranes (Immun-Blot PVDF, Bio-Rad) using the Bio-Rad TransBlot Turbo apparatus, and probed as above. The chemiluminescence signal was captured with a Bio-Rad ChemiDoc XRS+ digital imaging system.

importin β (KPNB1) = molecular target: T1, importin β (KPNB1) (Homo sapiens, UniProt Q14974); test: Rango FRET detection of importin β-Rango dissociation; format: binding; details: DPR 10-mers added to importin β-bound Rango
T1 construct: pET30a 6His-S-Importin β(1-876); 6His (N); S-tag (N); made in house; host or cells: E. coli BL21(DE3)
Protocol: Full-length human importin β was expressed from pET30a-WT importin β (pKW485; [Chi et al., 1997]) at the Protein Expression Laboratory (PEL, National Cancer Institute, Frederick, MD). The transformed BL21DE3 cells were grown at 37°C in an 80L Bioflow 500 bioreactor (New Brunswick Scientific, Edison, NJ) until OD600nm = 0.6, cooled to 22°C and the expression was induced with 0.3 mM IPTG. After 12 hr induction, cells were harvested with the CARR continuous flow centrifuge and lysed in PBS with 10 mM imidazole and 5 mM TCEP with a 110EH Microfluidizer (Microfluidics, Westwood, MA) using 2 passes at 10,000 PSI under chilled conditions. The lysates were flash-frozen in liquid nitrogen and stored at −80°C. After thawing, the lysates were clarified and incubated with HIS-Select HF Nickel Affinity beads. The beads were washed with 10 mM imidazole/PBS and the protein eluted with 200 mM imidazole/PBS before dialysis in XB. The purified importin β was combined with a freshly thawed aliquot of Rango2-α1 (pK188) at 2.5:1 molar ratio ratio (12.5 µM importin β, 5 µM Rango) and supplemented with 3% glycerol. Measurement of Rango fluorescence emission in a spectrometer (see below) was used to verify the FRET-off state of the Rango/importin β mixture before freezing.
The expression of zz-RCC1 was induced at OD600nm = 0.4, followed by incubation at 22°C for 4 hr. The cells were washed with PBS, 10 mM Imidazole, 1 mM MgCl2, 5 mM TCEP, 0.2 mM AEBSF, pH 8.0, and lysed by ice-cold microfluidizer. The clarified lysates were used to isolate the zz-RCC1 proteins on HIS-Select HF Nickel Affinity beads, as described above. Proteins eluted with 0.2M imidazole/PBS were dialyzed in PBS before storage. The zz-RanQ69L (pKW1234; pK1097) was expressed from BL21DE3 cells at PEL in an 80L bioreactor, using conditions described for importin β above, except that expression was induced with 0.3 mM IPTG at 37°C for 3 hr, and lysis was performed in PBS with 10 mM Imidazole, 5 mM TCEP, 2 mM MgCl2, and 1 mM GTP. The lysates were clarified and bound to HIS-Select HF Nickel Affinity beads (Millipore Sigma). […]
FRET assays for DPR-induced dissociation of the importin β-Rango complex were performed using a mix of 5 µM Rango-2/α1 (pK188) and 12.5 µM importin β (pKW485) prepared as described above. […] Peak emissions were recorded at 480 nm (donor) and 535 nm (acceptor) in all samples, and background emission subtracted at the same wavelengths in the blank. The FRET signal was calculated as the ratio of background-subtracted acceptor/donor emissions. The signal detected in the untreated sample (20 nM Rango and 50 nM importin β-only, the lowest FRET), was then subtracted from the resulting values. […]

T1 sequence (Q14974 whole entry): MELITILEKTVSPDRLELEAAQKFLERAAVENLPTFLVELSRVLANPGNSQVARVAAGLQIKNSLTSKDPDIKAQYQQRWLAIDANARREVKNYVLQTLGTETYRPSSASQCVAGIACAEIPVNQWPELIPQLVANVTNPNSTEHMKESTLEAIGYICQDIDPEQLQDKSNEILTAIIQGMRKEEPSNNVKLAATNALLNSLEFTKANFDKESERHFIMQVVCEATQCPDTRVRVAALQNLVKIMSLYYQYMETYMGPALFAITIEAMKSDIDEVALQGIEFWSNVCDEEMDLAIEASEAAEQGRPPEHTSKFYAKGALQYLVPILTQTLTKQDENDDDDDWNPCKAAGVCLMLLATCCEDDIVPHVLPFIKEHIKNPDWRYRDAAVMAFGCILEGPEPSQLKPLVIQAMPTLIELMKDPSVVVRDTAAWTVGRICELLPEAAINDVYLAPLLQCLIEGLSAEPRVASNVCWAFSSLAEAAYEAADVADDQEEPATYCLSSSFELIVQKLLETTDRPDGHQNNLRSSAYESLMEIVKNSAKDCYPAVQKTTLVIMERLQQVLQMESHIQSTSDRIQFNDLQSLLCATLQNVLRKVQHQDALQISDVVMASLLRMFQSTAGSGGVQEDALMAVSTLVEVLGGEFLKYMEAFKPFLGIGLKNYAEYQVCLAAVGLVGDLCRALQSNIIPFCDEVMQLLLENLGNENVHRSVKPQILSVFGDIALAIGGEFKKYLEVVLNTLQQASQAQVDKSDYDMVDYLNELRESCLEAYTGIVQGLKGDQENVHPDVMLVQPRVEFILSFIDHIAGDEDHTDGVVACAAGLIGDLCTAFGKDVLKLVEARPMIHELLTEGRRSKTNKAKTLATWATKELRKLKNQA

Row | Compound | Effect on passive nuclear influx of 40-kD dextran [1] | Displacement of importin β from Rango (GFP nanobody bead co-immunoprecipitation) (importin β) | Effect on Rango FRET (importin β (KPNB1))
1 | GPGPGPGPGPGPGPGPGPGPKC [GP10, Synthetic 10-mer GP dipeptide repeat with C-terminal lysine and cysteine] | not observed | little if any effect | did not affect Rango FRET
2 | PA10: Synthetic 10-mer PA dipeptide repeat with C-terminal lysine and cysteine (PAPAPAPAPAPAPAPAPAPAKC) | not observed | little if any effect | did not affect Rango FRET
3 | GA10: Synthetic 10-mer GA dipeptide repeat with C-terminal lysine and cysteine (GAGAGAGAGAGAGAGAGAGAKC) | not observed | little if any effect | did not affect Rango FRET
4 | N=C(N)NCCC[C@H](NC(=O)[C@@H]1CCCN1C(=O)[C@H](CCCNC(=N)N)NC(=O)[C@@H]1CCCN1C(=O)[C@H](CCCNC(=N)N)NC(=O)[C@@H]1CCCN1C(=O)[C@H](CCCNC(=N)N)NC(=O)[C@@H]1CCCN1C(=O)[C@H](CCCNC(=N)N)NC(=O)[C@@H]1CCCN1C(=O)[C@H](CCCNC(=N)N)NC(=O)[C@@H]1CCCN1C(=O)[C@H](CCCNC(=N)N)NC(=O)[C@@H]1CCCN1C(=O)[C@H](CCCNC(=N)N)NC(=O)[C@@H]1CCCN1C(=O)[C@H](CCCNC(=N)N)NC(=O)[C@@H]1CCCN1C(=O)[C@H](CCCNC(=N)N)NC(=O)[C@@H]1CCCN1)C(=O)O [PR10] (H-PRPRPRPRPRPRPRPRPRPR-OH; N-terminus and C-terminus assumed) |  | dose-dependent displacement of importin β from the sensor | dose-dependent increase in FRET
